Measured values published in patent US20240181068A1, “SELECTIVE NEUTRAL PH INHIBITOR OF CATHEPSIN B” (The Regents of the University of California, priority 2021, published 2024).

Key:
Assay type in all cases: biochemical
[1] = target: T1, cathepsin K (Homo sapiens, UniProt P43235); assay: Specificity of inhibitors: cathepsin K (Z-Phe-Arg-AMC substrate)
T1 construct: purchased Abcam ab157067
T1 sequence (P43235 115-329): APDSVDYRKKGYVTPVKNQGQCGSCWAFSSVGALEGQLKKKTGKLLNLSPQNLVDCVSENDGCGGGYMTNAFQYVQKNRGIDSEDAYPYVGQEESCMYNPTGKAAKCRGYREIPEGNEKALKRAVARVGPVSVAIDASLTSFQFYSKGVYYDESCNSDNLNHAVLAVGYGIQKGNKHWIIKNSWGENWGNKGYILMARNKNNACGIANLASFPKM
Method: (§1) Specificity of inhibitors for other cysteine cathepsin proteases. The effects of Z-Arg-Lys-AOMK and Z-Glu-Lys-AOMK on cathepsin V, L, K, S, X, H and C activities were assessed. IC50 values were calculated at pH 4.6 and pH 7.2 conditions, consisting of 40 mM citrate phosphate, 1 mM EDTA, 100 mM NaCl, and 5 mM DTT. The inhibitor concentrations ranged from 16.38 μM to 256 nM with 2-fold serial dilutions. […] Cathepsin V (0.04 ng/μL), cathepsin L (0.03 ng/μL), cathepsin K (0.10 ng/μL), cathepsin S (0.20 ng/uL) were assayed with 40 μM Z-Phe-Arg-AMC. Cathepsin X (0.20 ng/uL), cathepsin C (0.51 ng/uL) and cathepsin H (0.1 ng/μL) were assayed with 40 μM of MCA-Arg-Pro-Pro-Gly-Phe-Ser-Ala-Phe-Lys(Dnp)OH (SEQ ID NO: 2), Gly-Arg-AMC, and Arg-AMC, respectively. Activation of pro-cathepsin H to cathepsin H was conducted by incubation of cathepsin H (4.4 ng/μL) with cathepsin L (1.1 ng/μL) at RT for 2 hrs in activation buffer (20 mM citrate phosphate pH 6.0, 100 mM NaCl, and 5 mM DTT). Cathepsin C (13.78 ng/μL) was activated by incubation with cathepsin L (3.4 ng/μL) at RT for one hr in activation buffer (20 mM citrate phosphate, pH 6.0, 100 mM NaCl, 5 mM DTT). […] For all assays containing peptide-AMC substrates the fluorescent microplate reader settings were the same as outlined above for cathepsin B. For the cathepsin X assay, the plate reader was set to excitation 320 nm, emission 400 nm, gain 105, top optics and read height 1 mm. To convert RFU/s to picomol/min, 10 μM to 0.005 μM (2-fold serial dilution) of MCA-Arg-Pro-Pro-Gly-Phe-Ser-Ala-Phe-Lys(Dnp)OH (SEQ ID NO: 2) was fully hydrolyzed with excess cathepsin X and a standard curve was generated using the total fluorescence values calculated at each concentration.

[2] = target: cathepsin X (Homo sapiens, UniProt Q9UBR2); assay: Specificity of inhibitors: cathepsin X (MCA peptide substrate)
Method: as §1

[3] = target: T2, cathepsin B (Homo sapiens, UniProt P07858); assay: Irreversible mechanism of inhibitors (pre-incubation, dilution, activity); conditions: pH 7.2
T2 construct: purchased R&D Systems 953-CY-010
Method: Irreversible mechanism of inhibitors. The irreversible or reversible mechanism of cathepsin B inhibition was assessed for Z-Arg-Lys-AOMK and Z-Glu-Lys-AOMK inhibitors. At pH 7.2, cathepsin B was incubated with 190 nM Z-Arg-Lys-AOMK and 4.99 μM Z-Glu-Lys-AOMK for 15 min in pH 7.2 assay buffer and the assay was performed as described above for pH 4.6. Proteolytic activity was monitored for 2 hr. At pH 4.6, cathepsin B (activated, 3.7 ng/μL) was incubated with 4.24 μM Z-Arg-Lys-AOMK and 3.48 μM Z-Glu-Lys-AOMK for 15 min in 40 mM citrate phosphate pH 4.6, 1 mM EDTA, 100 mM NaCl, and 5 mM DTT; a vehicle control contained 2.5% DMSO. Each reaction was then diluted 100-fold in assay buffer such that the final assay composition was 0.04 ng/μL cathepsin B, 40 μM Z-Phe-Arg-AMC, and an inhibitor concentration of 1/10th the IC50 value.

Sequence of cathepsin X (Q9UBR2 62-303): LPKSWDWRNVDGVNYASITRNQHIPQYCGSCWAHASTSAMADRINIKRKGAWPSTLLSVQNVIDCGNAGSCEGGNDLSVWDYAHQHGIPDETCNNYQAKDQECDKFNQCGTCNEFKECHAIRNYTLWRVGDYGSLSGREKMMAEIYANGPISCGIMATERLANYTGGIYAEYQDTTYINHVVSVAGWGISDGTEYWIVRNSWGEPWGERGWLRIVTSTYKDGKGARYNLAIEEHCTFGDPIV

IC50 ([1]; cathepsin K, pH 4.6): > 16 µM
IC50 ([1]; cathepsin K, pH 7.2): > 16 µM
inhibition at 16 µM ([1]; cathepsin K, pH 7.2, 16,000 nM inhibitor): 31%
inhibition of cathepsin K ([1]; pH 4.6, inhibitor at 16 μM): no inhibition
inhibition of cathepsin K ([1]; pH 7.2, inhibitor at 16 μM): minimally inhibited
IC50 ([2]; cathepsin X, pH 4.6): > 16 µM
inhibition at 16 µM ([2]; cathepsin X, pH 4.6, 16,000 nM inhibitor): 21%
inhibition of cathepsin X ([2]; pH 4.6, inhibitor at 16 μM): minimal inhibition
cathepsin B activity after pre-incubation and dilution of inhibitor [3]: no cathepsin B activity
SMILES: Cc1cccc(C)c1C(=O)OCC(=O)C(CCCCN)NC(=O)C(CCCNC(=N)N)NC(=O)OCc1ccccc1 (stereo not drawn) [Z-Arg-Lys-AOMK]
